Here are results for 27 compounds from patent publication US20050043315A1, “Aminopyrimidine compounds, processes for their preparation and pharmaceutical compositions containing them” (priority 2002, published 2005).

A value given as a limit tells only on which side of the number the result lay.

As usually defined, the melting point is the temperature, or range, at which the solid turns liquid. Compound `CC(C)n1nc(-c2c(-c3ccccc3)nc(N)[nH]c2=S)ccc1=O` [Example 141, 6-(2-amino-4-phenyl-6-thioxo-1,6-dihydro-5-pyrimidinyl)-2-isopropyl-3(2H)-pyridazinone] came in with a melting point of 295 to 299 °C.

`COc1ccccc1-c1nc(N)ncc1-c1ccc(=O)n(C)n1` [Example 72, 6-[2-Amino-4-(2-methoxyphenyl)-5-pyrimidinyl]-2-methyl-3(2H)-pyridazinone] had a melting point of 225 °C.

As to `CC(C)n1nc(-c2cnc(N)nc2-c2cccc(OCCN(C)C)c2)ccc1=O` [Example 219, 6-(2-Amino-4-{3-[2-(dimethylamino)ethoxy]phenyl}-5-pyrimidinyl)-2-isopropyl-3(2H)-pyridazinone], the melting point was 111 °C.

As to `Cn1nc(-c2c(NCc3ccccc3)nc(N)nc2-c2ccccc2)ccc1=O` [Example 145, 6-[2-Amino-4-(benzylamino)-6-phenyl-5-pyrimidinyl]-2-methyl-3(2H)-pyridazinone], the melting point was above 250 °C.

`CC(C)n1nc(-c2c(NCc3cccnc3)nc(N)nc2-c2ccccc2)ccc1=O` [Example 122, 6-{2-Amino-4-phenyl-6-[(3-pyridinylmethyl)amino]-5-pyrimidinyl}-2-isopropyl-3(2H)-pyridazinone]: the melting point was 215 to 216.5 °C.

Compound `CC(C)n1nc(-c2c(-c3ccccc3)nc(N)nc2N2CCOCC2)ccc1=O` [Example 127, 6-[2-Amino-4-(4-morpholinyl)-6-phenyl-5-pyrimidinyl]-2-isopropyl-3(2H)-pyridazinone] registered a melting point of 251 to 253 °C.

As for `CC(C)n1nc(-c2cnc(N)nc2-c2ccc(OCCF)cc2)ccc1=O` [Example 209, 6-{2-Amino-4-[4-(2-fluoroethoxy)phenyl]-5-pyrimidinyl}-2-isopropyl-3(2H)-pyridazinone], the melting point was determined as 200 °C.

`COC(=O)COc1nc(N)nc(-c2ccccc2)c1-c1ccc(=O)n(C(C)C)n1` [Example 89, methyl {[2-amino-5-(1-isopropyl-6-oxo-1,6-dihydro-3-pyridazinyl)-6-phenyl-4-pyrimidinyl]oxy}acetate]: the melting point fell in the range of 150 to 152.5 °C.

In turn, `CCCn1nc(-c2cnc(N)nc2-c2ccccc2)ccc1=O` [Example 5, 6-(2-Amino-4-phenyl-5-pyrimidinyl)-2-propyl-3(2H)-pyridazinone] came in with a melting point of 188 to 189 °C.

The compound `COc1ccc(C(=O)Nc2ncc(-c3ccc(=O)n(C(C)C)n3)c(-c3ccccc3)n2)cc1` [Example 172, N-[5-(1-isopropyl-6-oxo-1,6-dihydro-3-pyridazinyl)-4-phenyl-2-pyrimidinyl]-4-methoxybenzamide] yielded a melting point of 171 to 174 °C.

Take `Cn1nc(-c2cnc(N)nc2-c2ccccc2Br)ccc1=O` [Example 74, 6-[2-Amino-4-(2-bromophenyl)-5-pyrimidinyl]-2-methyl-3(2H)-pyridazinone]: the melting point is above 250 °C.

Consider `CC(C)n1nc(-c2cnc(N)nc2-c2cccnc2)ccc1=O` [Example 52, 6-[2-Amino-4-(3-pyridinyl)-5-pyrimidinyl]-2-isopropyl-3(2H)-pyridazinone], for which the melting point was determined as 204 °C.

Compound `CC(C)COc1cccc(-c2nc(N)ncc2-c2ccc(=O)n(C(C)C)n2)c1` [Example 202, 6-[2-Amino-4-(3-isobutoxyphenyl)-5-pyrimidinyl]-2-isopropyl-3(2H)-pyridazinone] registered a melting point of 137 °C.

`CC(C)n1nc(-c2cnc(N3CCOCC3)nc2-c2ccccc2)ccc1=O` [Example 17, 2-isopropyl-6-[2-morpholino-4-phenyl-5-pyrimidinyl]-3(2H)-pyridazinone] yielded a melting point of 200.5 to 202 °C.

`Cc1ccccc1-c1nc(N)ncc1-c1ccc(=O)n(C(C)C)n1` [Example 56, 6-[2-Amino-4-(2-methylphenyl)-5-pyrimidinyl]-2-isopropyl-3(2H)-pyridazinone] came in with a melting point of 203 °C.

In the case of `Cn1nc(-c2c(Nc3ccccc3)nc(N)nc2-c2ccccc2)ccc1=O` [Example 147, 6-(2-Amino-4-anilino-6-phenyl-5-pyrimidinyl)-2-methyl-3(2H)-pyridazinone], the melting point was in the range of 252 to 254 °C.

Consider `CC(C)n1nc(-c2cnc(N)nc2-c2ccccc2OCCF)ccc1=O` [Example 210, 6-{2-Amino-4-[2-(2-fluoroethoxy)phenyl]-5-pyrimidinyl}-2-isopropyl-3(2H)-pyridazinone], for which the melting point turned out to be 171 °C.

Take `CCOc1ccc(-c2nc(N)ncc2-c2ccc(=O)n(C(C)C)n2)cc1` [Example 188, 6-[2-amino-4-(4-ethoxyphenyl)-5-pyrimidinyl]-2-isopropyl-3(2H)-pyridazinone]: the melting point was determined as 204 °C.

In turn, `CC(C)n1nc(-c2c(OCC(=O)OC(C)(C)C)nc(N)nc2-c2ccccc2)ccc1=O` [Example 159, tert-butyl {[2-amino-5-(1-isopropyl-6-oxo-1,6-dihydro-3-pyridazinyl)-6-phenyl-4-pyrimidinyl]-oxy}acetate] yielded a melting point of 160 to 162 °C.

Compound `CC(C)n1nc(-c2c(OCCO)nc(N)nc2-c2ccccc2)ccc1=O` [Example 86, 6-[2-Amino-4-(2-hydroxyethoxy)-6-phenyl-5-pyrimidinyl]-2-isopropyl-3(2H)-pyridazinone] displayed a melting point of 182 to 183 °C.

Consider `CC(C)n1nc(-c2cnc(NC(=O)OCC(Cl)(Cl)Cl)nc2-c2ccccc2)ccc1=O` [Example 177, 2,2,2-trichloroethyl 5-(1-isopropyl-6-oxo-1,6-dihydro-3-pyridazinyl)-4-phenyl-2-pyrimidinylcarbamate], for which the melting point lay within 158 to 162 °C.

Turning to `COc1ccc(-c2nc(N)ncc2-c2ccc(=O)n(C)n2)cc1` [Example 60, 6-[2-Amino-4-(4-methoxyphenyl)-5-pyrimidinyl]-2-methyl-3(2H)-pyridazinone], the melting point came to 259 °C.

Turning to `CCCCOc1cccc(-c2nc(N)ncc2-c2ccc(=O)n(C(C)C)n2)c1` [Example 199, 6-[2-Amino-4-(3-butoxyphenyl)-5-pyrimidinyl]-2-isopropyl-3(2H)-pyridazinone], the melting point turned out to be 130 °C.

Consider `CC(C)n1nc(-c2c(NCc3ccccc3)nc(N)nc2-c2ccc(F)cc2)ccc1=O` [Example 156, 6-[2-Amino-4-(benzylamino)-6-(4-fluorophenyl)-5-pyrimidinyl]-2-isopropyl-3(2H)-pyridazinone], for which the melting point is 191 to 192 °C.

`COc1nc(N)nc(-c2ccccc2)c1-c1ccc(=O)n(C(C)C)n1` [Example 80, 6-(2-amino-4-methoxy-6-phenyl-5-pyrimidinyl)-2-isopropyl-3(2H)-pyridazinone] gave a melting point of 230 to 233 °C.

On to `CC(C)n1nc(-c2cnc(N(C(=O)c3ccc(F)cc3)C(=O)c3ccc(F)cc3)nc2-c2ccccc2)ccc1=O` [Example 179, 4-Fluoro-N-(4-fluorobenzoyl)-N-[5-(1-isopropyl-6-oxo-1,6-dihydro-3-pyridazinyl)-4-phenyl-2-pyrimidinyl]benzamide], for which the melting point lay in the range of 148 to 151 °C.

For the compound `CC(C)n1nc(-c2cnc(N)nc2-c2ccsc2)ccc1=O` [Example 242, 6-[2-Amino-4-(3-thienyl)-5-pyrimidinyl]-2-isopropyl-3(2H)-pyridazinone], the melting point was 234 °C.
